{
  "source": "ChEMBL document CHEMBL4152321",
  "about": "“Synthesis and antiplasmodial activity of glyco-conjugate hybrids of phenylhydrazono-indolinones and glycosylated 1,2,3-triazolyl-methyl-indoline-2,3-diones” (Eur J Med Chem, 2018)",
  "key": {"Plasmodium falciparum [1]": {"test_system": "Plasmodium falciparum", "assay": "Antiplasmodial activity against chloroquine-sensitive Plasmodium falciparum 3D7 infected in human erythrocytes after 72 hrs by SYBR Green 1 staining based fluorescence assay", "format": "functional, organism-based", "settings": "3D7, 72 h"}, "Plasmodium falciparum [2]": {"test_system": "Plasmodium falciparum", "assay": "Antiplasmodial activity against chloroquine-resistant Plasmodium falciparum K1 infected in human erythrocytes after 72 hrs by SYBR Green 1 staining based fluorescence assay", "format": "functional, organism-based", "settings": "K1, 72 h"}, "[3]": {"assay": "Cytotoxicity against African green monkey Vero cells after 3 days by resazurin dye based fluorescence assay", "format": "cell-based", "settings": "chlorocebus sabaeus"}, "[4]": {"assay": "Selectivity index, ratio of CC50 for African green monkey Vero cells to IC50 for chloroquine-sensitive Plasmodium falciparum 3D7 infected in human erythrocytes", "format": "toxicity, cell-based", "settings": "read-out: Ratio CC50/IC50"}, "[5]": {"assay": "Selectivity index, ratio of CC50 for African green monkey Vero cells to IC50 for chloroquine-resistant Plasmodium falciparum K1 infected in human erythrocytes", "format": "toxicity, cell-based", "settings": "read-out: Ratio CC50/IC50"}},
  "data": [
    {"compound": "COc1ccc(N/N=C2\\C(=O)N(Cc3cn(O[C@@H]4O[C@H](CO)[C@H](O)[C@H](O)[C@H]4O)nn3)c3ccccc32)cc1", "values": [
      {"measurement": "IC50", "setting": "Plasmodium falciparum [1]", "value": 3.46, "unit": "µM"},
      {"measurement": "IC50", "setting": "Plasmodium falciparum [2]", "value": 5.2, "unit": "µM"},
      {"measurement": "CC50 at 72 h", "setting": "[3]", "value": 76.2, "unit": "µM"},
      {"measurement": "selectivity ratio", "setting": "[4]", "value": 22},
      {"measurement": "selectivity ratio", "setting": "[5]", "value": 14.7}
    ]},
    {"compound": "O=C1/C(=N\\Nc2cccc(Cl)c2)c2ccccc2N1Cc1cn(O[C@@H]2O[C@H](CO)[C@H](O)[C@H](O)[C@H]2O)nn1", "values": [
      {"measurement": "IC50", "setting": "Plasmodium falciparum [1]", "value": 6.74, "unit": "µM"},
      {"measurement": "IC50", "setting": "Plasmodium falciparum [2]", "value": 2.62, "unit": "µM"},
      {"measurement": "CC50 at 72 h", "setting": "[3]", "value": 84.5, "unit": "µM"},
      {"measurement": "selectivity ratio", "setting": "[4]", "value": 12.5},
      {"measurement": "selectivity ratio", "setting": "[5]", "value": 32.2}
    ]},
    {"compound": "N#Cc1ccc(N/N=C2\\C(=O)N(Cc3cn(O[C@@H]4O[C@H](CO)[C@H](O)[C@H](O)[C@H]4O)nn3)c3ccccc32)cc1", "values": [
      {"measurement": "IC50", "setting": "Plasmodium falciparum [1]", "value": 7.65, "unit": "µM"},
      {"measurement": "IC50", "setting": "Plasmodium falciparum [2]", "value": 3.3, "unit": "µM"},
      {"measurement": "CC50 at 72 h", "setting": "[3]", "value": 93.7, "unit": "µM"},
      {"measurement": "selectivity ratio", "setting": "[4]", "value": 12.2},
      {"measurement": "selectivity ratio", "setting": "[5]", "value": 28.4}
    ]},
    {"compound": "O=C1/C(=N\\Nc2ccc(F)cc2)c2ccccc2N1Cc1cn(O[C@@H]2O[C@H](CO)[C@H](O)[C@H](O)[C@H]2O)nn1", "values": [
      {"measurement": "IC50", "setting": "Plasmodium falciparum [1]", "value": 6.64, "unit": "µM"},
      {"measurement": "IC50", "setting": "Plasmodium falciparum [2]", "value": 3.23, "unit": "µM"},
      {"measurement": "CC50 at 72 h", "setting": "[3]", "value": 92.1, "unit": "µM"},
      {"measurement": "selectivity ratio", "setting": "[4]", "value": 13.9},
      {"measurement": "selectivity ratio", "setting": "[5]", "value": 28.5}
    ]}
  ]
}
